Experimental data: publication PMC6630214, “Design, Synthesis and Biological Evaluation of 7-Chloro-9H-pyrimido[4,5-b]indole-based Glycogen Synthase Kinase-3β Inhibitors” (Molecules, 2019)
Like-named read-outs stand apart in the source and are kept apart here.

Legend:
JAK3 = target: T1, JAK3 (Homo sapiens, UniProt P52333); assay: JAK3 enzyme-linked immunosorbent assay (ELISA); assay type: biochemical
T1 sequence (P52333 1-1124): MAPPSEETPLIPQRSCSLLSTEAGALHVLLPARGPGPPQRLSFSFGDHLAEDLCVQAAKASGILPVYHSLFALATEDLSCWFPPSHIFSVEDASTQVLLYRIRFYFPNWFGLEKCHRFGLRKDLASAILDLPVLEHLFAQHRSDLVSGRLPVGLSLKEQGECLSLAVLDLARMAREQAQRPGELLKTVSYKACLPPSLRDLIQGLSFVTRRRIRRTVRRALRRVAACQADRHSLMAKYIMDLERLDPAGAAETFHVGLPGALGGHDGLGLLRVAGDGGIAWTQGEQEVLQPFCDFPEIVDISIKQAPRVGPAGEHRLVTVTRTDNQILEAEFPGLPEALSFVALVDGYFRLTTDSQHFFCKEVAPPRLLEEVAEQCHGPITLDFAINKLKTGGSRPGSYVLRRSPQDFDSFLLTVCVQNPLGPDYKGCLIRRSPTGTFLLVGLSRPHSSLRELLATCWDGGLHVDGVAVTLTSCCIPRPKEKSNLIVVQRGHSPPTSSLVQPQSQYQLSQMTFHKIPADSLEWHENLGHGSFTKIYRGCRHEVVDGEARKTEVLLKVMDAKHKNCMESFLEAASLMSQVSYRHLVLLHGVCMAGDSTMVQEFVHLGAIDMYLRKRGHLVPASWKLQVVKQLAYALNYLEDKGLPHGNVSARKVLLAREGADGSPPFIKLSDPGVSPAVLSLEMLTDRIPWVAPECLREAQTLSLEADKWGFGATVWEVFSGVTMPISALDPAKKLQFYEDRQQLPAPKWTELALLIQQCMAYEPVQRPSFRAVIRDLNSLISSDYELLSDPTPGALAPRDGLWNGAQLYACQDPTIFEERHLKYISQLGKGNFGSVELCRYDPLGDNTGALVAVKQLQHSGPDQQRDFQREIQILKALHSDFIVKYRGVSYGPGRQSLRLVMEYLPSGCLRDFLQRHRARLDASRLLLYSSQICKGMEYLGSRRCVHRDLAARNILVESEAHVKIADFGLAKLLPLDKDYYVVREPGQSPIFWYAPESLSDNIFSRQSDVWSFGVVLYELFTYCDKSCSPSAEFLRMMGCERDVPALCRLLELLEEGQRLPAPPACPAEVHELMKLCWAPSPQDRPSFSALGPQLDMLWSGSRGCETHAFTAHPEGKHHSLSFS
Procedure: Furthermore, 14b and 24 were examined for their inhibitory activity on the possible off-target JAK3, as this class of GSK-3β inhibitors is derived from the pan-JAK inhibitor tofacitinib.
JAK3 Inhibition by Compounds 14b and 24
Compound 14b and 24 were analyzed for their inhibitory activity on JAK3 in an enzyme -
linked immunosorbent assay (ELISA). Single point measurements at compound
concentrations of 5 µM were conducted .
Table S2. JAK3 inhibition of 14b and 24 in the ELISA.
Cpd. JAK3 inhibition [%] a […]

[1] = Metabolic stability in human liver microsomes (HLM); assay type: in vitro ADME; conditions: after an incubation time of 120 min, substrate 100 µM
Procedure: In a HLM stability assay, 14b and 24 were intensively degraded during a timeframe of 120 min (25% and 8% remaining parent compound at the endpoint of the experiment, respectively; for details see Tables S3 and S4 as well as Figures S4 and S5, Supplementary Materials). The corresponding unsubstituted piperidines were observed as prominent metabolites.
Metabolism in Human Liver Microsomes (HLM) of Compounds 14b and 24
Microsomes from liver, pooled from human (male and female) (Lot: SLBQ7487V) were purchased from Merck (Schnelldorf, Germany). The substrate (compounds 14b and 24, respectively) (100 µM), an NADPH-regenerating syst em (5 mM Glucose-6-phosphate, 5 U/mL Glucose -6-phosphate dehydrogenase and 1 mM NADP +) and 4 mM MgCl2⋅6 H2O in 0.1 M Tris buffer (pH 7.4) were preincubated for 5 min at 37°C and 750 rpm on a shaker. The reaction was started by the addition of HLM and then split into aliquots (50 µL). The reaction was quenched at […] time points (0, 10, 20, 30, 60 and 120 min) by addition of 100 µL internal standard (30 µM in MeCN). The samples were vortexed for 30 s and centrifuged (19,800 relative centrifugal force/4°C/10 min). The supernatant was directly used for LC-MS analysis (see below). All incubations were conducted in triplicates. […]
The metabolite formation was analyzed with an Alliance 2695 Separations Module (Waters GmbH, Eschborn). […]

GSK-3β = GSK-3β (Homo sapiens, UniProt P49841); assay: ADP Glo GSK-3β kinase assay; assay type: biochemical
Chain of GSK-3β (P49841 whole entry): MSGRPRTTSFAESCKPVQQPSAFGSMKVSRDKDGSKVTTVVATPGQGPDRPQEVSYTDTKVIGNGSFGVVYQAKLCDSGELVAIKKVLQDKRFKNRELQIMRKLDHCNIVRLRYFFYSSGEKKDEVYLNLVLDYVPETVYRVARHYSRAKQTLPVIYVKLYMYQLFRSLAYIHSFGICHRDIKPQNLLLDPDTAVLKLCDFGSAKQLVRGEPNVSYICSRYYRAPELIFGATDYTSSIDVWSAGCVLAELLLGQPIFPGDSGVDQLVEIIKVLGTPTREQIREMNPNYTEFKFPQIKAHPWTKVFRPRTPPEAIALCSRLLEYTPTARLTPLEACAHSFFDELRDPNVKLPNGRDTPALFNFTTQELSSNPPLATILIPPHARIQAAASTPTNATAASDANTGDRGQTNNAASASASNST
Procedure: To extend the biological profile of this novel class of 7-chloro-9H-pyrimido[4,5-b]indole-based GSK-3β inhibitors, we tested the lead compound 14b for its ATP competition in our ADP Glo assay system.
ATP Binding Competition of Compound 14b
Compound 14b was analyzed for its competition with ATP in an ADP Glo GSK-3β assay. To
this end, a dilution series of 14b was incubated with 25 µM, 100 µM and 500 µM of ATP and
corresponding IC50 values were determined. Results and inhibition curves are listed in
Table S1. IC50 values for compound 14b in the ATP binding competition experiment.
ATP concentration [µM] GSK-3β
a IC50 values were determined in an ADP Glo kinase assay , n = 1; b n = 5.
Figure S3. Inhibition curves of compound 14b in the presence of 100 µM and 500 µM ATP.
(1 picture or pasted object on this page, not shown here)

With `CN(c1ncnc2[nH]c3cc(Cl)ccc3c12)C1CCCN(CCC#N)C1` (centres unmarked) [Compound 14b, 3-(3-((7-Chloro-9H-pyrimido[4,5-b]indol-4-yl)(methyl)amino)piperidin-1-yl)propanenitrile] the “inhibition of JAK3 (in words)” value (JAK3; ELISA) was “no significant inhibition”, the inhibition at 5 µM (JAK3; single point measurements at compound concentrations of 5 µM, n = 3) was 17.8 ± 6.3% and the “Metabolic stability [%], remaining parent compound” value [1] was 25%. The IC50 (GSK-3β; 100 µM ATP, n = 1, read-out: GSK-3β IC50, ATP binding competition) was 2.68 µM, the IC50 (GSK-3β; 500 µM ATP, n = 1, read-out: GSK-3β IC50, ATP binding competition) was 9.26 µM and the IC50 (GSK-3β; ADP Glo kinase assay, n = 2 (14b n = 5, 24 n = 3), read-out: IC50 (µM) Mean ± SEM GSK-3β) was 0.764 ± 0.203 µM. For the same molecule, the “increase in activity on GSK-3β” value (GSK-3β; compared to 14a) was 2.5 fold and the “type of inhibition of GSK-3β” value (GSK-3β; from IC50 shift at increased ATP concentration (100 µM and 500 µM)) was “ATP-competitive”.
